Reference: patent US20240383856A1 (Zedira GmbH, priority 2021, published 2024)

Key:
[1] = target: T1, recombinant human transglutaminase 2 (Homo sapiens, UniProt P21980); assay: Transglutaminase assay (DCC-assay): incorporation of dansylcadaverine into dimethylcasein; format: biochemical; conditions: recombinant human TG2 10 nM; dansylcadaverine incorporation into dimethylcasein; read-out: IC50 TG2
T1 construct: purchased Zedira T022
T1 sequence (P21980 1-687): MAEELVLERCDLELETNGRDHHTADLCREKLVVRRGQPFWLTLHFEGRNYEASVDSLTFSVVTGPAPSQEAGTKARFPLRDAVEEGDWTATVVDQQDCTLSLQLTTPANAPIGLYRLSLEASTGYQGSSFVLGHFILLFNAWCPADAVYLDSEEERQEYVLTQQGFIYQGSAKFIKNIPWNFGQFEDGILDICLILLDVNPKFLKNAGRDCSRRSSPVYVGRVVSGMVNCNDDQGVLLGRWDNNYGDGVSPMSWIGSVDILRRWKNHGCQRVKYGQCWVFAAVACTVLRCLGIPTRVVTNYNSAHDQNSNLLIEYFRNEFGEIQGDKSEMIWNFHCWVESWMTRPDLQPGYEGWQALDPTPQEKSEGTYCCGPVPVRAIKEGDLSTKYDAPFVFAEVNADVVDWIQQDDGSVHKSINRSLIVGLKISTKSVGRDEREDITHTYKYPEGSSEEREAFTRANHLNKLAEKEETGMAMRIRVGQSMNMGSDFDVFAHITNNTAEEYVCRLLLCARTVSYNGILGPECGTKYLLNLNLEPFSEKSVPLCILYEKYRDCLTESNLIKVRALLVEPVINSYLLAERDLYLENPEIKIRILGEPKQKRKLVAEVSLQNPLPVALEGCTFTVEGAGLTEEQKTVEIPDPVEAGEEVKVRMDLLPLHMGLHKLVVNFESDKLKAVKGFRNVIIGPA
Experimental: To illustrate the advantage of branched alkyl moieties over aromatic moieties, we refer to reference compounds Ref. 2 (ZED1227, U.S. Pat. No. 9,434,763 B2) and Ref. 3 (A8, ZED1047). Inhibition data were determined using the classical fluorescent transamidation assay (dansylcadaverine incorporation into methylated casein, DCC-assay) as described [Buchold, C.; Hils, M.; Gerlach, U.; Weber, J.; Pelzer, C.; Heil, A.; Aeschlimann, D.; Pasternack, R. Features of ZED1227: The First-In-Class Tissue Transglutaminase Inhibitor Undergoing Clinical Evaluation for the Treatment of Celiac Disease. Cells 2022, 11, 1667. https://doi.org/10.3390/cells11101667]. Casein is one of the best known high molecular weight (24 kDa) protein substrates for transglutaminases. Please note, the IC50 value of Ref. 3 (A8) published in U.S. Pat. No. 9,434,763 B2 cannot be compared to the present data, relying on a fluorogenic isopeptidase assay.
To this extent, inhibition data were determined using the classical fluorescent transamidation assay (dansylcadaverine incorporation into methylated casein, DCC-assay) as described in Büchold et al. [Büchold, C.; Hils, M.; Gerlach, U.; Weber, J.; Pelzer, C.; Heil, A.; Aeschlimann, D.; Pasternack, R. Features of ZED1227: The First-In-Class Tissue Transglutaminase Inhibitor Undergoing Clinical Evaluation for the Treatment of Celiac Disease. Cells 2022, 11, 1667. https://doi.org/10.3390/cells11101667]. Casein is one of the best known high molecular weight (24 kDa) protein substrates for transglutaminases. Inhibition data of the inventive compounds was compared with inhibition of compounds disclosed in U.S. Pat. No. 9,434,763 B2, particularly, compound A8, which is denoted herein as Reference 3. It is noteworthy that the IC50 values of compounds A8 published in U.S. Pat. No. 9,434,763 B2 and E16 from U.S. Pat. No. 11,072,634 B2 cannot be compared to the present data, relying on a fluorogenic isopeptidase assay.
For the determination of potency of inhibitors against tissue transglutaminase, the incorporation of dansylcadaverine into dimethylcasein (Zedira product T036, Lorand et al., Anal Biochem, 1971, 44:221-31) was measured using recombinant human transglutaminase 2 (Zedira Product T022).
The tissue transglutaminase is diluted in buffer (50 mM Tris-HCl, 7.5 mM CaCl2), 150 mM NaCl, pH=7.4). The final concentration of TG2 in the assay is 10 nM.
A 10 mM inhibitor stock solution is prepared in DMSO, and from this a serial 1:2-fold dilution series is prepared also in DMSO. Each of the initial dilutions is subsequently diluted 1:50-fold with buffer (50 mM Tris-HCl, 7.5 mM CaCl2), 150 mM NaCl, pH=7.4) to yield the final working dilutions containing 2% (v/v) DMSO.
15 μl of inhibitor working dilution are added per well of a 96 well microtiter plate. As control, 15 μl of a 2% (v/v) DMSO solution prepared using the buffer mentioned above are added per well.
Immediately before starting the assay, 600 μl transglutaminase working solution are added to 11.4 ml assay buffer (50 mM Tris-HCl, 10 mM CaCl2), 10 mM glutathione, 2.5% glycerol, 16.7 µM dansylcadaverine, 4 uM N,N-dimethylcasein, 200 mM NaCl, pH=8.0). 285 μl of this reaction mix are added per well containing the inhibitor.
Increase in fluorescence is measured using λex=330 nm and λem=500 nm at 37° C. for 30 min. A slope of the increase in fluorescence between 20 and 30 min is calculated for determination of the IC50 value (inhibitor concentration at which 50% of the initial activity is blocked).
Analysis of enzymatic activity is performed by calculation of the slope of an increase in fluorescence intensity. IC50 values are calculated by plotting the enzymatic activity (as percentage from control containing 2% DMSO instead of inhibitor) against the inhibitor concentration. IC50 is defined as the inhibitor concentration blocking 50% of initial enzyme activity.

[2] = Caco-2 permeability assay (CacoReady kit); format: in vitro ADME; conditions: human, Caco-2, Caco-2 barrier, CacoReady kit; above 1×10^−6 cm/s classified as permeable
Experimental: Permeability coefficients (Papp values) were obtained from Caco-2 barrier studies predicting oral/intestinal bioavailability of the tested compounds. The assays were performed by using CacoReady™ ready-to-use kits from ReadyCell according to the manufacturers protocol.

[3] = logD by shake flask method (octanol / PBS pH 7.4, HPLC); format: physicochemical; conditions: octanol / PBS pH 7.4, shake flask
Experimental: In order to classify the inventive compounds according to their lipophilicity, LogD values (distribution coefficient) were determined by means of the well-established shake flask method, measuring the partition of a compound between an octanol and phosphate-buffered saline (PBS, pH 7.4) by HPLC.
The LogD is pH dependent and is a “predictor” for in-vivo properties. LogD combines lipophilicity (intrinsic structural property of the molecule, logP) and ionizability (pKa). Compounds with a moderate lipophilicity (LogD values from 0 to 3) are usually advantaged for oral absorption, being in balance between solubility and permeability. However, sophisticated formulation of a compound might improve oral bioavailability for highly lipophilic compounds.

Row | Compound | IC50 [1] [nM] | Papp [2] [×10⁻⁶ cm/s] | logD [3]
1 | CNC(=O)C(=O)CC[C@H](NC(=O)c1cc(C(=O)OC)cc([N+](=O)[O-])c1)C(=O)Nc1cccn(CC(=O)NC2C3CC4CC(C3)CC2C4)c1=O (stereo partly drawn) [II-62, (S)-methyl 3-(1-(1-(2-(2-adamantylamino)-2-oxoethyl)-2-oxo-1,2-dihydropyridin-3-ylamino)-6-(methylamino)-1,5,6-trioxohexan-2-ylcarbamoyl)-5-nitrobenzoate] | < 40 | 1 to 10 | 1 to 3
2 | CNC(=O)C(=O)CC[C@H](NC(=O)c1c(C)nc2sccn12)C(=O)Nc1cccn(CC(=O)NC2C3CC4CC(C3)CC2C4)c1=O (stereo partly drawn) [II-66, (S)-N1-(1-(2-(2-adamantylamino)-2-oxoethyl)-2-oxo-1,2-dihydropyridin-3-yl)-N6-methyl-2-(6-methylimidazo[2,1-b]thiazole-5-carboxamido)-5-oxohexanediamide] | 400 to 2500 | < 1 | 1 to 3
3 | CNC(=O)C(=O)CC[C@H](NC(=O)c1oc2ccccc2c1C)C(=O)Nc1cccn(CC(=O)N[C@@H]2C[C@H]3CC[C@@H]2C3)c1=O [II-94, (S)-N1-(1-(2-((1R,2R,4S)-bicyclo[2.2.1]heptan-2-ylamino)-2-oxoethyl)-2-oxo-1,2-dihydropyridin-3-yl)-N6-methyl-2-(3-methylbenzofuran-2-carboxamido)-5-oxohexanediamide] | < 40 | 1 to 10 | 1 to 3
4 | CNC(=O)C(=O)CC[C@H](NC(=O)c1oc2ccccc2c1C)C(=O)Nc1cccn(CC2C3CC4CC(C3)CC2C4)c1=O (stereo partly drawn) [II-110, (S)-N1-(1-(2-adamantylmethyl)-2-oxo-1,2-dihydropyridin-3-yl)-N6-methyl-2-(3-methylbenzofuran-2-carboxamido)-5-oxohexanediamide] | 40 to 400 | 1 to 10 | 3 to 5
5 | CNC(=O)C(=O)CC[C@H](NC(=O)c1oc2ccccc2c1C)C(=O)Nc1cccn(CC(=O)NC2C3CC4CC2CC(F)(C4)C3)c1=O (stereo partly drawn) [II-69, (S)-N1-(1-(2-(5-fluoroadamantane-2-amino)-2-oxoethyl)-2-oxo-1,2-dihydropyridin-3-yl)-N6-methyl-2-(3-methylbenzofuran-2-carboxamido)-5-oxohexanediamide] | < 40 | 1 to 10 | 1 to 3
6 | CNC(=O)C(=O)CC[C@H](NC(=O)c1snnc1C1CC1)C(=O)Nc1cccn(CC(=O)NC23CC(C2)C3)c1=O [II-201, (S)-N1-(1-(2-(bicyclo[1.1.1]pentan-1-ylamino)-2-oxoethyl)-2-oxo-1,2-dihydropyridin-3-yl)-2-(4-cyclopropyl-1,2,3-thiadiazole-5-carboxamido)-N6-methyl-5-oxohexanediamide] | 40 to 400 | < 1 | < 1
7 | CCCCCNC(=O)C(=O)CC[C@H](NC(=O)c1oc2ccccc2c1C)C(=O)Nc1cccn(CC(=O)NC2C3CC4CC(C3)CC2C4)c1=O (stereo partly drawn) [II-116, (S)-N1-(1-(2-(2-adamantylamino)-2-oxoethyl)-2-oxo-1,2-dihydropyridin-3-yl)-2-(3-methylbenzofuran-2-carboxamido)-5-oxo-N6-pentylhexanediamide] | 40 to 400 | 1 to 10 | 3 to 5
8 | NC(=O)C(=O)CC[C@H](NC(=O)c1cc(Cl)sc1Cl)C(=O)Nc1cccn(CC(=O)NC2C3CC4CC(C3)CC2C4)c1=O (stereo partly drawn) [II-125, (S)-2-(2,5-dichlorothiophene-3-carboxamido)-N1-(1-(2-(2-adamantylamino)-2-oxoethyl)-2-oxo-1,2-dihydropyridin-3-yl)-5-oxohexanediamide] | 40 to 400 | 1 to 10 | 1 to 3
9 | Cc1c(C(=O)N[C@@H](CCC(=O)C(N)=O)C(=O)Nc2cccn(CC(=O)N[C@H]3C[C@H]4CC[C@]3(C)C4(C)C)c2=O)oc2ccccc12 [II-151, (S)-2-(3-methylbenzofuran-2-carboxamido)-5-oxo-N1-(2-oxo-1-(2-oxo-2-((1R,2S,4R)-1,7,7-trimethylbicyclo[2.2.1]heptan-2-ylamino)ethyl)-1,2-dihydropyridin-3-yl)hexanediamide] | 40 to 400 | 1 to 10 | 1 to 3
